Laboratory results reported in patent US8535689B2, “Identification of bacterial autoinducer and use in treating bacterial pathogenicity” (priority 2007, dated 2013).
Entries after “also recorded” stand apart in the source; their conditions may differ.

Experiments:
[1] = system: CAI-1 reporter strain MM920 (V. cholerae El Tor C6706str ΔcqsA ΔluxQ/pBB1 (luxCDABE from V. harveyi)); assay: Bioluminescence assay in V. cholerae CAI-1 reporter strain MM920; assay type: cell-based, Vibrio cholerae; details: for bioluminescence as a percentage of the bioluminescence activity of the V. cholerae CAI-1 autoinducer: reporter strain MM920, reference (S)-3-hydroxytridecan-4-one (CAI-1), FIG. 13; for activation of the V. cholerae quorum sensing circuit: to different degrees, pattern C13(5)>C13(R)>C12(S)≈C12(R)>C11(S)>C11(R); for activation of the V. cholerae quorum sensing circuit / fold greater biological activity than the molecule one carbon shorter: FIG. 3; for fold greater biological activity than the molecule one carbon shorter: side chain length comparison
Description: CAI-1 Purification from E. coli. V. cholerae cqsA (VCA0523) was cloned into pTrc99A and transformed into E. coli strain DH5α. The recombinant strain was grown at room temperature with aeration in 2.4 L of M9 medium supplemented with glucose (4 g/L), leucine (0.5 g/L), and ampicillin (0.1 g/L). cqsA expression was induced for 16 h with 0.5 mM IPTG. Following centrifugation at 10,000×g and passage through a 0.22 μm filter, the cell-free culture fluid was mixed with 0.6 v dichloromethane (DCM) in a reparatory funnel. The organic phase was isolated, evaporated, and assayed for CAI-1 activity using the bioluminescent V. cholerae CAI-1 reporter strain MM920 (V. cholerae El Tor C67O6str ΔcqsA ΔluxQ/pBB1 (luxCDABE from V. harveyi)), as described in Miller et al. (2002). The extract was dissolved in DCM and further purified by passage through silica gel with 0.5 L of 7:3 DCM:methanol, followed by concentration via evaporation. 50-100 mg of the concentrate was dissolved in ˜1 mL DCM, injected onto a (2×25-cm) ethyl-pyridine HPLC column, and eluted using a gradient of increasing ethyl acetate in hexanes (0-80%) at 20 mL/min. Fractions were tested for CAI-1 activity; active fractions were pooled.
Bioluminescence Assays. When assaying column fractions for autoinducer activity, 5% of each fraction was evaporated and dissolved in a mixture of water:acetonitrile (2:1). This preparation was added at 2% volume to the CAI-1 reporter strain MM920 (V. cholerae El Tor C67O6str ΔcqsA ΔluxQ/pBB1 (luxCDABE from V. harveyi)) according to previously described methods, as described in Miller et al. (2002). Synthetic CAI-1 preparations were dissolved in DMSO and supplied at 0.5% total volume to MM920 at specified concentrations.
[…]. Bioluminescence measurements at varying concentrations of analogue (generally from […]) were measured using a Wallac EnVision 2103 Multilabel Reader (Perkin Elmer, Waltham, Mass.).

[2] = system: V. cholerae BH1575 (El Tor C6706str ΔluxS ΔcqsA); assay: CAI-1 stability in culture with V. cholerae cells; assay type: in vitro ADME, Vibrio cholerae; details: V. cholerae ΔluxS ΔcqsA in LB, 37° C. overnight, 10 μM CAI-1; FIG. 6d
Description: (§1) Early stationary phase E. coli KX1200 (MG1655 ΔluxS) and V. cholerae BH1575 (El Tor C6706str ΔluxS ΔcqsA) were diluted to OD 0.1 in LB medium. Along with sterile LB medium, they were shaken overnight at 37° C. with and without 10 μM CAI-1 supplementation. Culture and LB samples were centrifuged at 10,000×g, filtered with 0.22 μm filters, and read at 10% final culture volume using the V. cholerae CAI-1 reporter bioassay.

[3] = CAI-1 pH stability, read with the V. cholerae bioluminescence assay; assay type: physicochemical; details: pH 2, 4, 6, 7, 8, 10, 12 potassium phosphate buffer; 5, 20, 60 minutes or overnight; FIG. 6b
Description: CAI-1 stock in DMSO was diluted 1:128 into 100 mM potassium phosphate buffer at specified pH values to a final autoinducer concentration of 400 μM. Following incubation at room temperature for specified times, samples were neutralized with an equal volume of 100 mM potassium phosphate buffer (e.g. pH 10 buffer was added to pH 4 buffered autoinducer). Neutralized samples, now with 200 μM CAI-1, were chilled briefly on ice and frozen in dry ice/ethanol. Autoinducer samples were thawed, diluted 1:3 in 100 mM pH 7 potassium phosphate buffer, and read with the V. cholerae bioluminescence assay. Diluted sample was added at 5% of reporter culture volume, for final concentrations of 3.3 μM CAI-1 and 5 mM potassium phosphate.

[4] = system: TcpA, a subunit of the toxin co-regulated pilus (TCP); assay: Western blot of TcpA production in V. cholerae strains treated with synthetic CAI-1; assay type: cell-based, Vibrio cholerae; details: ΔluxQ
From the text: Western Blot Analysis. […]. Anti-TcpA antibody and Anti-Rabbit IgG Horseradish Peroxidase Conjugate (Promega) were used with the SuperSignal West Pico Chemiluminescent Substrate (Pierce) system.
Results. A major goal of quorum-sensing research is to develop strategies to artificially manipulate quorum-sensing-controlled processes in bacteria. […]. Proc. Natl. Acad. Sci. USA 84, 2833-2837 (1987), hereby incorporated by reference into this application. […]. […]. Importantly, synthetic CAI-1 had no effect on TcpA production in a ΔluxQ, ΔcqsS strain, which cannot respond to either CAI-1 or AI-2 (FIG. 4b, bottom row). […]

[5] = system: E. coli KX1200 (MG1655 ΔluxS); assay: CAI-1 stability in culture with E. coli cells; assay type: in vitro ADME, Escherichia coli; details: E. coli ΔluxS in LB, 37° C. overnight, 10 μM CAI-1; FIG. 6d
Description: as §1

[6] = CAI-1 thermal stability, read with the V. cholerae bioluminescence assay; assay type: physicochemical; details: pH 7 phosphate buffer, FIG. 6a
Description: CAI-1 stock in DMSO was diluted 1:128 into 10 mM potassium phosphate buffer at pH 7 to a final autoinducer concentration of 400 μM. Samples were incubated for specified lengths of time, chilled briefly on ice, and frozen in dry ice/ethanol. Samples were thawed, diluted 1:3 in the same phosphate buffer, and read with the V. cholerae bioluminescence assay. Diluted sample was added at 2.5% of reporter culture volume, for final concentrations of 3.3 μM CAI-1 and 250 μM potassium phosphate.

## [2H]C([2H])(C)C(O)C(=O)CCCCCCCCC (stereo not drawn) [2,2-D2-3-hydroxytridecan-4-one]
[1]
  bioluminescence as a percentage of the bioluminescence activity of the V. cholerae CAI-1 autoinducer: equivalent activity to CAI-1

## CCCCCCCC(=O)[C@H](O)CC [C11(R), (R)-3-hydroxyundecan-4-one]
[1]
  activation of the V. cholerae quorum sensing circuit: activated

## CCCCCCCC(=O)[C@@H](O)CC [C11(S), (S)-3-hydroxyundecan-4-one]
[1]
  activation of the V. cholerae quorum sensing circuit: activated

## CCCCCCCCCC(=O)[C@@H](O)CC [CAI-1, (S)-3-hydroxytridecan-4-one]
[2]
  effect of cells on CAI-1 levels: do not adversely affect CAI-1 levels
[3]
  pH stability: stable under a wide range of pH values
[4]; cqsA+ V. cholerae strain, FIG. 4b middle row
  TcpA production: repress TcpA production; also recorded: decreased
[4]; ΔcqsA V. cholerae strain, CAI-1 at concentrations up to 10 μM, FIG. 4b top row
  TcpA production: repress TcpA production; also recorded: substantially repressed
[4]; ΔcqsS V. cholerae strain, FIG. 4b bottom row
  TcpA production: no effect
[1]
  bioluminescence as a percentage of the bioluminescence activity of the V. cholerae CAI-1 autoinducer: 100%
  activation of the V. cholerae quorum sensing circuit: activated
[5]
  effect of cells on CAI-1 levels: do not adversely affect CAI-1 levels
[6]; high temperatures (up to 80° C.)
  heat stability: subject to degradation
[6]; physiologically relevant temperatures, 5, 20, 60 minutes or overnight
  heat stability: heat stable

## CCCCCCCCC(=O)[C@@H](O)CC [Compound 5, (S)-3-hydroxydodecan-4-one]
[1]
  bioluminescence as a percentage of the bioluminescence activity of the V. cholerae CAI-1 autoinducer: twenty
  activation of the V. cholerae quorum sensing circuit: activated

## CCCCCCCCC(=O)[C@H](O)CC [Compound 6, (R)-3-hydroxydodecan-4-one]
[1]
  bioluminescence as a percentage of the bioluminescence activity of the V. cholerae CAI-1 autoinducer: twenty
  activation of the V. cholerae quorum sensing circuit: activated

## CCCCCCCCCC(=O)[C@H](O)CC [Compound 7, (R)-3-hydroxytridecan-4-one]
[1]
  bioluminescence as a percentage of the bioluminescence activity of the V. cholerae CAI-1 autoinducer: forty
  activation of the V. cholerae quorum sensing circuit: activated

## CCCCCCCCCC(=O)C(=O)CC [Compound 10, tridecane-3,4-dione]
[1]
  bioluminescence as a percentage of the bioluminescence activity of the V. cholerae CAI-1 autoinducer: ten
[1]; listed as tridecan-3,4-dione
  bioluminescence as a percentage of the bioluminescence activity of the V. cholerae CAI-1 autoinducer: 10%

## CCCCCCCCCC(=O)C(N)CC.Cl (stereo not drawn) [Compound 22, 3-aminotridecan-4-one hydrochloride]
[1]
  bioluminescence as a percentage of the bioluminescence activity of the V. cholerae CAI-1 autoinducer: equivalent activity to CAI-1

## CCCCCCCCCC(=O)C(O)CC (stereo not drawn) [thirteen-carbon molecule, 3-hydroxytridecan-4-one]
[1]
  fold greater biological activity than the molecule one carbon shorter: 8 fold

## CCCCCCCCC(=O)C(O)CC (stereo not drawn) [twelve-carbon molecule, 3-hydroxydodecan-4-one]
[1]
  fold greater biological activity than the molecule one carbon shorter: 8 fold
